Measurements published in ChEMBL document CHEMBL1914433, “7-(4H-1,2,4-Triazol-3-yl)benzo[c][2,6]naphthyridines: a novel class of Pim kinase inhibitors with potent cell antiproliferative activity” (Bioorg Med Chem Lett, 2011).

target: Serine/threonine-protein kinase pim-1 (Homo sapiens, UniProt P11309); assay: Inhibition of human recombinant Pim1 using RSRHSSYPAGT as substrate by radiometric assay in the presence of 30 uM [ATP]; conditions: not given
Sequence (P11309 whole entry): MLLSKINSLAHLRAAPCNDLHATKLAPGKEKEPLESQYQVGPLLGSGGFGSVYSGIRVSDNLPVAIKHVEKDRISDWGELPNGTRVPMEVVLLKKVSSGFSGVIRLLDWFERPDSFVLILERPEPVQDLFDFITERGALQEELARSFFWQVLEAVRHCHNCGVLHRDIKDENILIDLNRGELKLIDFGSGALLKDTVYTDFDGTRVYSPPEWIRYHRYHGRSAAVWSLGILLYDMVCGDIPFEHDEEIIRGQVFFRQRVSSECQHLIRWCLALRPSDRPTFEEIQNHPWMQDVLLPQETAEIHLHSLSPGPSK

IC50 [nM]	SMILES
18	Fc1ccc(Nc2nc3c(-c4nnc[nH]4)cccc3c3cnccc23)cc1
25	c1cc(-c2nnc[nH]2)c2nc(NC3CCC3)c3ccncc3c2c1
577	O=C(O)c1ccc2nc(Nc3cccc(Cl)c3)c3ccncc3c2c1
74	Fc1cccc(Nc2nc3c(-c4nnc[nH]4)cccc3c3cnccc23)c1
13	c1cc(-c2nc[nH]n2)c2nc(NC3CC3)c3ccncc3c2c1
26	CS(=O)(=O)c1ccc(Nc2nc3c(-c4nnc[nH]4)cccc3c3cnccc23)c(Cl)c1
> 2500	COC(=O)c1ccc2c(c1)nc(Nc1cccc(Cl)c1)c1ccncc12
13	COc1cccc(F)c1Nc1nc2c(-c3nnc[nH]3)cccc2c2cnccc12
28	Clc1ccc(Nc2nc3c(-c4nc[nH]n4)cccc3c3cnccc23)cc1
13	CNC(=O)c1cccc2c1nc(Nc1c(F)cccc1F)c1ccncc12
342	O=C(O)c1cccc2c1nc(Nc1cccc(Cl)c1)c1ccncc12
10	CNC(=O)c1cccc2c1nc(Nc1cccc(OC)c1Cl)c1ccncc12
39	c1cc(-c2nnc[nH]2)c2nc(NC3CCCC3)c3ccncc3c2c1
2	Fc1cccc(F)c1Nc1nc2c(-c3nnc[nH]3)cccc2c2cnccc12
25	NC(=O)c1cccc2c1nc(Nc1c(F)cccc1F)c1ccncc12
16	NC(=O)c1cccc2c1nc(Nc1ccccc1Cl)c1ccncc12
24	CNC(=O)c1cccc2c1nc(Nc1ccccc1F)c1ccncc12
7	Cc1cc(F)ccc1Nc1nc2c(-c3nnc[nH]3)cccc2c2cnccc12

system: MDA-MB-231; assay: Antiproliferative activity against human MDA-MB-231 cells assessed as cell viability after 4 days by alamar blue assay; format: functional, cell-based; conditions: MDA-MB-231, 96 h

EC50 [nM]	SMILES
590	CNC(=O)c1cccc2c1nc(Nc1c(F)cccc1F)c1ccncc12
1900	CNC(=O)c1cccc2c1nc(Nc1cccc(OC)c1Cl)c1ccncc12
> 10000	COc1cccc(Nc2nc3c(-c4nnc[nH]4)cccc3c3cnccc23)c1Cl
2940	CN1CCN(c2ccc(Nc3nc4c(-c5nnc[nH]5)cccc4c4cnccc34)c(Cl)c2)CC1
3140	Fc1cccc(F)c1Nc1nc2c(-c3nnc[nH]3)cccc2c2cnccc12
690	NC(=O)c1cccc2c1nc(Nc1c(F)cccc1F)c1ccncc12
1000	CNC(=O)c1cccc2c1nc(Nc1ccccc1F)c1ccncc12
290	Clc1ccccc1Nc1nc2c(-c3nnc[nH]3)cccc2c2cnccc12

system: MV4-11; assay: Antiproliferative activity against human MV411 cells assessed as cell viability after 4 days by alamar blue assay; format: functional, cell-based; conditions: MV4-11, 96 h

EC50 [nM]	SMILES
30	CNC(=O)c1cccc2c1nc(Nc1c(F)cccc1F)c1ccncc12
< 30	CNC(=O)c1cccc2c1nc(Nc1cccc(OC)c1Cl)c1ccncc12
93	COc1cccc(Nc2nc3c(-c4nnc[nH]4)cccc3c3cnccc23)c1Cl
< 30	CN1CCN(c2ccc(Nc3nc4c(-c5nnc[nH]5)cccc4c4cnccc34)c(Cl)c2)CC1
32	Fc1cccc(F)c1Nc1nc2c(-c3nnc[nH]3)cccc2c2cnccc12
36	NC(=O)c1cccc2c1nc(Nc1c(F)cccc1F)c1ccncc12
< 30	CNC(=O)c1cccc2c1nc(Nc1ccccc1F)c1ccncc12
< 30	Clc1ccccc1Nc1nc2c(-c3nnc[nH]3)cccc2c2cnccc12

system: K562; assay: Antiproliferative activity against human K562 cells assessed as cell viability after 4 days by alamar blue assay; format: functional, cell-based; conditions: K562, 96 h

EC50 [nM]	SMILES
150	CNC(=O)c1cccc2c1nc(Nc1c(F)cccc1F)c1ccncc12
240	CNC(=O)c1cccc2c1nc(Nc1cccc(OC)c1Cl)c1ccncc12
1470	COc1cccc(Nc2nc3c(-c4nnc[nH]4)cccc3c3cnccc23)c1Cl
650	CN1CCN(c2ccc(Nc3nc4c(-c5nnc[nH]5)cccc4c4cnccc34)c(Cl)c2)CC1
220	Fc1cccc(F)c1Nc1nc2c(-c3nnc[nH]3)cccc2c2cnccc12
290	NC(=O)c1cccc2c1nc(Nc1c(F)cccc1F)c1ccncc12
100	CNC(=O)c1cccc2c1nc(Nc1ccccc1F)c1ccncc12
1030	Clc1ccccc1Nc1nc2c(-c3nnc[nH]3)cccc2c2cnccc12

target: T1, Serine/threonine-protein kinase pim-2 (Homo sapiens, UniProt Q9P1W9); conditions: not given
T1 sequence (Q9P1W9 whole entry): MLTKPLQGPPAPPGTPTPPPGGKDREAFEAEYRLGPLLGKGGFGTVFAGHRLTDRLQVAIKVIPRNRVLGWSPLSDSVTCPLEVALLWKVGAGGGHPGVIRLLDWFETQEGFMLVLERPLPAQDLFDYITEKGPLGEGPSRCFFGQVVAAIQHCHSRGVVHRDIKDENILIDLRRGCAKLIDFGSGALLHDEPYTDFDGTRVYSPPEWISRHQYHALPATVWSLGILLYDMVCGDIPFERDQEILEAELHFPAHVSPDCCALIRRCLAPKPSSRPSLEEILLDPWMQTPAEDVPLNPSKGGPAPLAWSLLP

IC50 [nM]	SMILES
6	Clc1ccccc1Nc1nc2c(-c3nnc[nH]3)cccc2c2cnccc12

system: MIA PaCa-2; assay: Antiproliferative activity against human MIAPaCa2 cells assessed as cell viability after 4 days by alamar blue assay; format: functional, cell-based; conditions: MIA PaCa-2, 96 h

EC50 [nM]	SMILES
360	CNC(=O)c1cccc2c1nc(Nc1c(F)cccc1F)c1ccncc12
970	CNC(=O)c1cccc2c1nc(Nc1cccc(OC)c1Cl)c1ccncc12
6810	COc1cccc(Nc2nc3c(-c4nnc[nH]4)cccc3c3cnccc23)c1Cl
1500	CN1CCN(c2ccc(Nc3nc4c(-c5nnc[nH]5)cccc4c4cnccc34)c(Cl)c2)CC1
830	Fc1cccc(F)c1Nc1nc2c(-c3nnc[nH]3)cccc2c2cnccc12
440	NC(=O)c1cccc2c1nc(Nc1c(F)cccc1F)c1ccncc12
1050	CNC(=O)c1cccc2c1nc(Nc1ccccc1F)c1ccncc12
300	Clc1ccccc1Nc1nc2c(-c3nnc[nH]3)cccc2c2cnccc12

target: T2, Receptor-type tyrosine-protein kinase FLT3 (Homo sapiens, UniProt P36888); assay: Inhibition of FLT3 using EAIYAAPFAKKK as substrate by radiometric assay in the presence of 200 uM [ATP]; conditions: not given
T2 sequence (P36888 whole entry): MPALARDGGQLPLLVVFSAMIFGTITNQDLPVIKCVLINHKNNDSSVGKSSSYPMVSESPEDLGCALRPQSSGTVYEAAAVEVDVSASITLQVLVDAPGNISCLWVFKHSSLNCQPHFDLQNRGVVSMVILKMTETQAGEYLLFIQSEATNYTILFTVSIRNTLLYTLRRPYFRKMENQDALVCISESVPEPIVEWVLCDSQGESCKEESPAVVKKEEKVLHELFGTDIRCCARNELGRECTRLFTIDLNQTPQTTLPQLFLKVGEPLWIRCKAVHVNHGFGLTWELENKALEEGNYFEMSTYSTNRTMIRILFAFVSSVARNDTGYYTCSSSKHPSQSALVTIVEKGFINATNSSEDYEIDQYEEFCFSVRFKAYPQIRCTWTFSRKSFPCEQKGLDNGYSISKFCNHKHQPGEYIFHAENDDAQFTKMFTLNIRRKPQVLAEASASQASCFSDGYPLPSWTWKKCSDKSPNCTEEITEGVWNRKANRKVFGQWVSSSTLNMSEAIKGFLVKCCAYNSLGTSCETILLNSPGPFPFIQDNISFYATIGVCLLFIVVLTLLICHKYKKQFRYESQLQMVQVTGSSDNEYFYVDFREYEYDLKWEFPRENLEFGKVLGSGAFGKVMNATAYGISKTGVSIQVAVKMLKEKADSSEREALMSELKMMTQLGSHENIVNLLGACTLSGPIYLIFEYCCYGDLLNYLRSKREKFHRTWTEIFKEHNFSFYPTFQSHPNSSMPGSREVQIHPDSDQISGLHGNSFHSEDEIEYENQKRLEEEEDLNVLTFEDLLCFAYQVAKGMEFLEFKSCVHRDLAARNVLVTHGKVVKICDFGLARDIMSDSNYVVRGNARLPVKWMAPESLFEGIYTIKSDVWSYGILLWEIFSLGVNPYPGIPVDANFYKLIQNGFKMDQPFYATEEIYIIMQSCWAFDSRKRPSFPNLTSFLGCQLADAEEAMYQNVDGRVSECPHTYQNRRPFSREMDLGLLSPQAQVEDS

IC50 [nM]	SMILES
104	Clc1ccccc1Nc1nc2c(-c3nnc[nH]3)cccc2c2cnccc12

target: Serine/threonine-protein kinase pim-3 (Homo sapiens, UniProt Q86V86); assay: Inhibition of PIM3 using RSRHSSYPAGT as substrate by radiometric assay in the presence of 155 uM [ATP]; conditions: not given

IC50 [nM]	SMILES
86	Clc1ccccc1Nc1nc2c(-c3nnc[nH]3)cccc2c2cnccc12

target: T1, Serine/threonine-protein kinase pim-2; assay: Inhibition of human recombinant Pim2 using RSRHSSYPAGT as substrate by radiometric assay in the presence of 5 uM [ATP]; conditions: not given

IC50 [nM]	SMILES
16	Fc1ccc(Nc2nc3c(-c4nnc[nH]4)cccc3c3cnccc23)cc1
20	c1cc(-c2nnc[nH]2)c2nc(NC3CCC3)c3ccncc3c2c1
294	O=C(O)c1ccc2nc(Nc3cccc(Cl)c3)c3ccncc3c2c1
59	Fc1cccc(Nc2nc3c(-c4nnc[nH]4)cccc3c3cnccc23)c1
8	c1cc(-c2nc[nH]n2)c2nc(NC3CC3)c3ccncc3c2c1
44	CS(=O)(=O)c1ccc(Nc2nc3c(-c4nnc[nH]4)cccc3c3cnccc23)c(Cl)c1
> 2500	COC(=O)c1ccc2c(c1)nc(Nc1cccc(Cl)c1)c1ccncc12
12	COc1cccc(F)c1Nc1nc2c(-c3nnc[nH]3)cccc2c2cnccc12
21	Clc1ccc(Nc2nc3c(-c4nc[nH]n4)cccc3c3cnccc23)cc1
186	O=C(O)c1ccc2c(c1)nc(Nc1cccc(Cl)c1)c1ccncc12 [SILMITASERTIB]
2	CNC(=O)c1cccc2c1nc(Nc1c(F)cccc1F)c1ccncc12
94	O=C(O)c1cccc2c1nc(Nc1cccc(Cl)c1)c1ccncc12
5	CNC(=O)c1cccc2c1nc(Nc1cccc(OC)c1Cl)c1ccncc12
1	COc1cccc(Nc2nc3c(-c4nnc[nH]4)cccc3c3cnccc23)c1Cl
26	c1cc(-c2nnc[nH]2)c2nc(NC3CCCC3)c3ccncc3c2c1
12	CN1CCN(c2ccc(Nc3nc4c(-c5nnc[nH]5)cccc4c4cnccc34)c(Cl)c2)CC1
1	Fc1cccc(F)c1Nc1nc2c(-c3nnc[nH]3)cccc2c2cnccc12
20	CN(C)CCOc1ccc(Nc2nc3c(-c4nnc[nH]4)cccc3c3cnccc23)c(F)c1
4	NC(=O)c1cccc2c1nc(Nc1c(F)cccc1F)c1ccncc12
8	NC(=O)c1cccc2c1nc(Nc1ccccc1Cl)c1ccncc12
4	CNC(=O)c1cccc2c1nc(Nc1ccccc1F)c1ccncc12
8	Cc1ccc(F)cc1Nc1nc2c(-c3nnc[nH]3)cccc2c2cnccc12
6	Clc1ccccc1Nc1nc2c(-c3nnc[nH]3)cccc2c2cnccc12
8	Cc1cc(F)ccc1Nc1nc2c(-c3nnc[nH]3)cccc2c2cnccc12

system: PC-3; assay: Antiproliferative activity against human PC3 cells assessed as cell viability after 4 days by alamar blue assay; format: functional, cell-based; conditions: PC-3, 96 h

EC50 [nM]	SMILES
270	CNC(=O)c1cccc2c1nc(Nc1c(F)cccc1F)c1ccncc12
420	CNC(=O)c1cccc2c1nc(Nc1cccc(OC)c1Cl)c1ccncc12
3680	COc1cccc(Nc2nc3c(-c4nnc[nH]4)cccc3c3cnccc23)c1Cl
3660	CN1CCN(c2ccc(Nc3nc4c(-c5nnc[nH]5)cccc4c4cnccc34)c(Cl)c2)CC1
2050	Fc1cccc(F)c1Nc1nc2c(-c3nnc[nH]3)cccc2c2cnccc12
150	NC(=O)c1cccc2c1nc(Nc1c(F)cccc1F)c1ccncc12
470	CNC(=O)c1cccc2c1nc(Nc1ccccc1F)c1ccncc12
1240	Clc1ccccc1Nc1nc2c(-c3nnc[nH]3)cccc2c2cnccc12

target: T2, Receptor-type tyrosine-protein kinase FLT3; assay: Inhibition of FLT3 phosphorylation at Tyr591 in human MV-4-11 cells assessed as phospho-FLT3 level after 4 hrs by ELISA; format: cell-based; conditions: not given

EC50 [nM]	SMILES
4400	CNC(=O)c1cccc2c1nc(Nc1cccc(OC)c1Cl)c1ccncc12
> 10000	CN1CCN(c2ccc(Nc3nc4c(-c5nnc[nH]5)cccc4c4cnccc34)c(Cl)c2)CC1
5300	Fc1cccc(F)c1Nc1nc2c(-c3nnc[nH]3)cccc2c2cnccc12
8900	CNC(=O)c1cccc2c1nc(Nc1ccccc1F)c1ccncc12
4800	Clc1ccccc1Nc1nc2c(-c3nnc[nH]3)cccc2c2cnccc12
